From PubChem BioAssay AID1963958 (Molecular Pharmacology Branch, DTP, NCI, 2024)

System: MDA-MB-231 multicell spheroids, viability
Assay: Anticancer human tumor MDA-MB-231 cell line growth inhibition [PI3K];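 also: spheroids exposed to agents for seven days before reading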;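 as to viability, T/C: percent of vehicle control luminescence with DMSO treated spheroids as 100%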
Conditions: for IC50: curve of first compound; for viability, T/C: stronger effect = lower value; active = viability on the fitted dose curve at most 10% of control; inactive = the rest
Method in brief: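 Tumor cells were combined with HUVEC and MSCs into spheroids, then dosed with PI3K-inhibitor combinations over half-log ranges capped near clinical Cmax or 10 microM.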

[1] = second compound 0.0316 µM, first compound 0.0316 µM
[2] = second compound 0.0316 µM, first compound 0.1 µM
[3] = second compound 0.0316 µM, first compound 0.316 µM
[4] = second compound 0.0316 µM, first compound 1 µM
[5] = second compound 0.0316 µM, first compound 3.16 µM
[6] = second compound 0.0316 µM, first compound 10 µM
[7] = second compound 0.1 µM, first compound 0.0316 µM
[8] = second compound 0.1 µM, first compound 0.1 µM
[9] = second compound 0.1 µM, first compound 0.316 µM
[10] = second compound 0.1 µM, first compound 1 µM
[11] = second compound 0.1 µM, first compound 3.16 µM
[12] = second compound 0.1 µM, first compound 10 µM
[13] = second compound 0.316 µM, first compound 0.0316 µM
[14] = second compound 0.316 µM, first compound 0.1 µM
[15] = second compound 0.316 µM, first compound 0.316 µM
[16] = second compound 0.316 µM, first compound 1 µM
[17] = second compound 0.316 µM, first compound 3.16 µM
[18] = second compound 0.316 µM, first compound 10 µM
[19] = second compound 1 µM, first compound 0.0316 µM
[20] = second compound 1 µM, first compound 0.1 µM
[21] = second compound 1 µM, first compound 0.316 µM
[22] = second compound 1 µM, first compound 1 µM
[23] = second compound 1 µM, first compound 3.16 µM
[24] = second compound 1 µM, first compound 10 µM
[25] = second compound 3.16 µM, first compound 0.0316 µM
[26] = second compound 3.16 µM, first compound 0.1 µM
[27] = second compound 3.16 µM, first compound 0.316 µM
[28] = second compound 3.16 µM, first compound 1 µM
[29] = second compound 3.16 µM, first compound 3.16 µM
[30] = second compound 3.16 µM, first compound 10 µM
[31] = second compound 10 µM, first compound 0.0316 µM
[32] = second compound 10 µM, first compound 0.1 µM
[33] = second compound 10 µM, first compound 0.316 µM
[34] = second compound 10 µM, first compound 1 µM
[35] = second compound 10 µM, first compound 3.16 µM
[36] = second compound 10 µM, first compound 10 µM

C=CC(=O)N1CCN(c2nc(=O)n(-c3c(C)ccnc3C(C)C)c3nc(-c4c(O)cccc4F)c(F)cc23)C(C)C1 (stereo not given) + Cc1nc(NC(=O)N2CCCC2C(N)=O)sc1-c1ccnc(C(C)(C)C(F)(F)F)c1
inactive: viability, T/C [1] 97.5% | viability, T/C [2] 98.3% | viability, T/C [3] 96.4% | viability, T/C [4] 103% | viability, T/C [5] 120% | viability, T/C [6] 102% | viability, T/C [7] 86.5% | viability, T/C [8] 85.4% | viability, T/C [9] 93.2% | viability, T/C [10] 108% | viability, T/C [11] 109% | viability, T/C [12] 88.4% | viability, T/C [13] 74.8% | viability, T/C [14] 79.1% | viability, T/C [15] 79% | viability, T/C [16] 82.8% | viability, T/C [17] 87.9% | viability, T/C [18] 66.9% | viability, T/C [19] 63% | viability, T/C [20] 66.5% | viability, T/C [21] 68.2% | viability, T/C [22] 71.1% | viability, T/C [23] 62.1% | viability, T/C [24] 48.5% | viability, T/C [25] 66.3% | viability, T/C [26] 66.8% | viability, T/C [27] 68% | viability, T/C [28] 65.4% | viability, T/C [29] 60.1% | viability, T/C [30] 42.1% | viability, T/C [31] 67.6% | viability, T/C [32] 60.3% | viability, T/C [33] 60% | viability, T/C [34] 58.5% | viability, T/C [35] 54.7% | viability, T/C [36] 36.7%
> 10000 nM: IC50 (second compound 0.0316 µM) | IC50 (second compound 0.1 µM) | IC50 (second compound 0.316 µM) | IC50 (second compound 1 µM)
3950 nM: IC50 (second compound 10 µM)
6060 nM: IC50 (second compound 3.16 µM)

CC(C)NCC(C(=O)N1CCN(c2ncnc3c2C(C)CC3O)CC1)c1ccc(Cl)cc1 (stereo not given) + Cc1nc(NC(=O)N2CCCC2C(N)=O)sc1-c1ccnc(C(C)(C)C(F)(F)F)c1
6690 nM: IC50 (second compound 0.1 µM)
inactive: viability, T/C [1] 95.8% | viability, T/C [2] 95.9% | viability, T/C [3] 82.7% | viability, T/C [4] 83.5% | viability, T/C [5] 66.9% | viability, T/C [6] 44.2% | viability, T/C [7] 84.8% | viability, T/C [8] 79.9% | viability, T/C [9] 71.4% | viability, T/C [10] 73.5% | viability, T/C [11] 64% | viability, T/C [12] 42.5% | viability, T/C [13] 72.6% | viability, T/C [14] 77.8% | viability, T/C [15] 73.4% | viability, T/C [16] 63.4% | viability, T/C [17] 55% | viability, T/C [18] 42.6% | viability, T/C [19] 70.7% | viability, T/C [20] 66.6% | viability, T/C [21] 63.7% | viability, T/C [22] 60.4% | viability, T/C [23] 55.6% | viability, T/C [24] 40.4% | viability, T/C [25] 73.7% | viability, T/C [26] 66.4% | viability, T/C [27] 64.3% | viability, T/C [28] 60.6% | viability, T/C [29] 54.3% | viability, T/C [30] 40.4% | viability, T/C [31] 68.7% | viability, T/C [32] 65.5% | viability, T/C [33] 61.3% | viability, T/C [34] 59.9% | viability, T/C [35] 53.4% | viability, T/C [36] 37.8%
4090 nM: IC50 (second compound 3.16 µM)
7630 nM: IC50 (second compound 0.0316 µM)
4730 nM: IC50 (second compound 0.316 µM)
4400 nM: IC50 (second compound 1 µM)
3700 nM: IC50 (second compound 10 µM)

CCN1CCN(Cc2ccc(Nc3ncc(F)c(-c4cc(F)c5nc(C)n(C(C)C)c5c4)n3)nc2)CC1 + Cc1nc(NC(=O)N2CCCC2C(N)=O)sc1-c1ccnc(C(C)(C)C(F)(F)F)c1
261 nM: IC50 (second compound 0.0316 µM)
89.3 nM: IC50 (second compound 0.1 µM)
30.9 nM: IC50 (second compound 0.316 µM)
23.6 nM: IC50 (second compound 3.16 µM)
13.7 nM: IC50 (second compound 10 µM)
20.2 nM: IC50 (second compound 1 µM)
inactive: viability, T/C (second compound 0.0316 µM, first compound 0.00316 µM) 90.9% | viability, T/C (second compound 0.0316 µM, first compound 0.01 µM) 75.5% | viability, T/C [1] 66.3% | viability, T/C [2] 54.2% | viability, T/C [3] 45.3% | viability, T/C [4] 49.6% | viability, T/C (second compound 0.1 µM, first compound 0.00316 µM) 82.4% | viability, T/C (second compound 0.1 µM, first compound 0.01 µM) 74.1% | viability, T/C [7] 59.8% | viability, T/C [8] 50.5% | viability, T/C [9] 40.8% | viability, T/C [10] 46.4% | viability, T/C (second compound 0.316 µM, first compound 0.00316 µM) 72.3% | viability, T/C (second compound 0.316 µM, first compound 0.01 µM) 66.7% | viability, T/C [13] 50.3% | viability, T/C [14] 40.9% | viability, T/C [15] 41.3% | viability, T/C [16] 47.9% | viability, T/C (second compound 1 µM, first compound 0.00316 µM) 65.8% | viability, T/C (second compound 1 µM, first compound 0.01 µM) 57.3% | viability, T/C [19] 45.8% | viability, T/C [20] 40.2% | viability, T/C [21] 40% | viability, T/C [22] 47.7% | viability, T/C (second compound 3.16 µM, first compound 0.00316 µM) 66.2% | viability, T/C (second compound 3.16 µM, first compound 0.01 µM) 58.6% | viability, T/C [25] 47.7% | viability, T/C [26] 41.6% | viability, T/C [27] 37.6% | viability, T/C [28] 48.4% | viability, T/C (second compound 10 µM, first compound 0.00316 µM) 66.2% | viability, T/C (second compound 10 µM, first compound 0.01 µM) 53.2% | viability, T/C [31] 44.4% | viability, T/C [32] 42% | viability, T/C [33] 39.4% | viability, T/C [34] 47.5%

Cn1ncc(Cl)c1-c1cc(C(=O)NC(CN)Cc2cccc(F)c2)sc1Cl (stereo not given) + Cc1nc(NC(=O)N2CCCC2C(N)=O)sc1-c1ccnc(C(C)(C)C(F)(F)F)c1
1900 nM: IC50 (second compound 0.316 µM) | IC50 (second compound 1 µM)
inactive: viability, T/C [1] 104% | viability, T/C [2] 89.2% | viability, T/C [3] 82.9% | viability, T/C [4] 71.8% | viability, T/C [5] 49.9% | viability, T/C [6] 28.8% | viability, T/C [7] 86.6% | viability, T/C [8] 83.3% | viability, T/C [9] 81% | viability, T/C [10] 66.2% | viability, T/C [11] 47.8% | viability, T/C [12] 24.4% | viability, T/C [13] 76% | viability, T/C [14] 80.8% | viability, T/C [15] 70.5% | viability, T/C [16] 64.8% | viability, T/C [17] 38.8% | viability, T/C [18] 25.1% | viability, T/C [19] 67.7% | viability, T/C [20] 72.3% | viability, T/C [21] 64.3% | viability, T/C [22] 57% | viability, T/C [23] 44.4% | viability, T/C [24] 24.5% | viability, T/C [25] 72.1% | viability, T/C [26] 66.6% | viability, T/C [27] 66.7% | viability, T/C [28] 57.6% | viability, T/C [29] 42.7% | viability, T/C [30] 26.6% | viability, T/C [31] 69% | viability, T/C [32] 62% | viability, T/C [33] 57.9% | viability, T/C [34] 60.4% | viability, T/C [35] 48% | viability, T/C [36] 23.5%
2480 nM: IC50 (second compound 10 µM)
2710 nM: IC50 (second compound 0.1 µM)
3290 nM: IC50 (second compound 0.0316 µM)
1800 nM: IC50 (second compound 3.16 µM)

Cn1nccc1Nc1nccc(-c2ccn(C(CO)c3ccc(Cl)c(F)c3)c(=O)c2)n1 (stereo not given) + Cc1nc(NC(=O)N2CCCC2C(N)=O)sc1-c1ccnc(C(C)(C)C(F)(F)F)c1
423 nM: IC50 (second compound 0.1 µM)
151 nM: IC50 (second compound 0.316 µM)
< 31.6 nM: IC50 (second compound 10 µM)
57.6 nM: IC50 (second compound 3.16 µM)
inactive: viability, T/C [1] 75.6% | viability, T/C [2] 65% | viability, T/C [3] 56.1% | viability, T/C [4] 45.3% | viability, T/C [5] 36.5% | viability, T/C [6] 26% | viability, T/C [7] 66.2% | viability, T/C [8] 58.1% | viability, T/C [9] 54% | viability, T/C [10] 41.6% | viability, T/C [11] 35.7% | viability, T/C [12] 22.4% | viability, T/C [13] 62.2% | viability, T/C [14] 49.5% | viability, T/C [15] 46.7% | viability, T/C [16] 37.6% | viability, T/C [17] 29.3% | viability, T/C [18] 21.9% | viability, T/C [19] 56.6% | viability, T/C [20] 47.2% | viability, T/C [21] 43.6% | viability, T/C [22] 34.6% | viability, T/C [23] 25.1% | viability, T/C [24] 19.7% | viability, T/C [25] 53.8% | viability, T/C [26] 47.2% | viability, T/C [27] 37.8% | viability, T/C [28] 34.3% | viability, T/C [29] 24.2% | viability, T/C [30] 16.7% | viability, T/C [31] 43.2% | viability, T/C [32] 37.1% | viability, T/C [33] 33% | viability, T/C [34] 29.6% | viability, T/C [35] 21.9% | viability, T/C [36] 10.6%
610 nM: IC50 (second compound 0.0316 µM)
88.1 nM: IC50 (second compound 1 µM)
